Like-named read-outs stand apart in the source and are kept apart here.
Columns and labels:
Format in all cases: in vivo
[1] = test system: Uromyces appendiculatus; assay: Uromyces test (beans)/protective; settings: protective spray, evaluated 10 days after inoculation
Source text: (§1) The expected fungicidal action for a given combination of two or three active compounds can be calculated as follows, according to S. R. Colby (“Calculating Synergistic and Antagonistic Responses of Herbicide Combinations”, Weeds 1961 15, 20-22):
(§2) If • X is the efficacy when employing active compound A at an application rate of m g/ha, • Y is the efficacy when employing active compound B at an application rate of n g/ha and • E is the efficacy when employing active compounds A and B at application rates of m and n g/ha,
(§3) Here, the efficacy is determined in %. 0% means an efficacy which corresponds to that of the control, whereas an efficacy of 100% means that no infection is observed.
(§4) If the actual fungicidal action exceeds the calculated value, the action of the combination is superadditive, i.e. a synergistic effect is present. In this case, the actually observed efficacy must exceed the value calculated using the above formula for the expected efficacy (E).
Uromyces Test (Beans)/Protective
(§5) Solvent: 24,5 parts by weight of acetone • 24,5 parts by weight of dimethylacetamide
(§6) Emulsifier: 1 part by weight of alkylaryl polyglycol ether
(§7) To produce a suitable preparation of active compound, 1 part by weight of active compound is mixed with the stated amounts of solvent and emulsifier, and the concentrate is diluted with water to the desired concentration.
(§8) To test for protective activity, young plants are sprayed with the preparation of active compound at the stated rate of application. After the spray coating has dried on, the plants are inoculated with an aqueous spore suspension of the causal agent of bean rust (Uromyces appendiculatus) and then remain for 1 day in an incubation cabinet at approximately 20° C. and a relative atmospheric humidity of 100%.
(§9) The plants are then placed in a greenhouse at approximately 21° C. and a relative atmospheric humidity of approximately 90%.
(§10) The test is evaluated 10 days after the inoculation. 0% means an efficacy which corresponds to that of the control, while an efficacy of 100% means that no disease is observed.

[2] = test system: Septoria tritici; assay: Septoria tritici-test (wheat)/preventive; settings: preventive spray, evaluated 21 days after inoculation
Source text: as §1, §2, §3, §4
Septoria tritici-Test (Wheat)/Preventive
(§11) Solvent: 49 parts by weight of n,n-dimethylacetamid
as §6
(§12) To produce a suitable preparation of active compound, 1 part by weight of active compound or active compound combination is mixed with the stated amounts of solvent and emulsifier, and the concentrate is diluted with water to the desired concentration.
(§13) To test for preventive activity, young plants are sprayed with the preparation of active compound or active compound combination at the stated rate of application.
After the spray coating has been dried on, the plants are sprayed with a spore suspension of Septoria tritici. The plants remain for 48 hours in an incubation cabinet at approximately 20° C. and a relative atmospheric humidity of approximately 100% and afterwards for 60 hours at approximately 15° C. in a translucent incubation cabinet at a relative atmospheric humidity of approximately 100%.
The plants are placed in the greenhouse at a temperature of approximately 15° C. and a relative atmospheric humidity of approximately 80%.
The test is evaluated 21 days after the inoculation. 0% means an efficacy which corresponds to that of the control, while an efficacy of 100% means that no disease is observed.

[3] = test system: Blumeria graminis f.sp. tritici; assay: Blumeria test (wheat)/preventive; settings: preventive spray, evaluated 7 days after inoculation
Source text: as §1, §2, §3, §4
Blumeria Test (Wheat)/Preventive
as §11
(§14) Emulsifier: 1 part by weight of alkylaryl polyglycol ether […]
(§15) The test is evaluated 7 days after the inoculation. […]

[4] = test system: Venturia inaequalis; assay: Venturia test (apples)/protective; settings: protective spray, evaluated 10 days after inoculation
Source text: as §1, §2, §3, §4
Venturia Test (Apples)/Protective
as §5, §6, §7
as §8, with “conidia” for “spore”, “apple scab (Venturia inaequalis)” for “bean rust (Uromyces appendiculatus)”
as §9, §10

[5] = test system: Pyrenophora teres; assay: Pyrenophora teres-test (barley)/preventive; settings: 192 h, read-out: Efficacy in %
Source text: as §1, §2, §3, §4
Pyrenophora teres-Test (Barley)/Preventive
as §11, §6, §12, §13
After the spray coating has been dried on, the plants are sprayed with a spore suspension of Pyrenophora teres. The plants remain for 48 hours in an incubation cabinet at approximately 20° C. and a relative atmospheric humidity of approximately 100%.
The plants are placed in the greenhouse at a temperature of approximately 20° C. and a relative atmospheric humidity of approximately 80%.
The test is evaluated 8 days after the inoculation. 0% means an efficacy which corresponds to that of the control, while an efficacy of 100% means that no disease is observed.

[6] = test system: Sphaerotheca fuliginea; assay: Sphaerotheca test (cucumbers)/protective; settings: protective spray, evaluated 7 days after inoculation
Source text: as §1, §2, §3, §4
Sphaerotheca Test (Cucumbers)/Protective
as §5, §14, §15

[7] = barley, preventive spray, 62.5 ppm, evaluated 8 days after inoculation

C[Si](C)(C)CC(O)(Cn1cncn1)c1ccc(F)cc1 (stereo not drawn) [Ex B2 Simeconazole, Simeconazole] gave an Efficacy in % ([1]; 5 ppm) of 84% and an Efficacy in % ([2]; 1000 ppm) of 67%.

Compound COCC(=O)N(c1c(C)cccc1C)C(C)C(=O)OC (stereo not drawn) [Ex B4 Metalaxyl, Metalaxyl] has an Efficacy in % ([2]; 1000 ppm) of 33%.

In the case of COCC(=O)N(c1c(C)cccc1C)[C@H](C)C(=O)OC [Ex B4 Metalaxyl M, Metalaxyl M], the Efficacy in % ([3]; 250 ppm) was 0% and the Efficacy in % ([4]; 200 ppm) was 29%.

N#Cc1ccccc1NC(=O)c1snc(Cl)c1Cl [Ex I-2] gave an Efficacy in % ([3]; 1000 ppm) of 22%, an Efficacy in % ([4]; 50 ppm) of 0% and an Efficacy in % ([4]; 100 ppm) of 19%. For the same compound, the Efficacy in % ([4]; 200 ppm) was 37%, the Efficacy in % ([1]; 50 ppm) was 8% and the Efficacy in % ([1]; 100 ppm) was 0%. For the same compound, the Efficacy in % ([1]; 200 ppm) was 15%, the Efficacy in % ([2]; 1000 ppm) was 0% and the pest or weed control at 250 ppm [5] was 0%. For the same compound, the pest or weed control at 1000 ppm [5] was 11%.

With CO/N=C(/C(=O)OC)c1ccccc1CO/N=C(\C)c1cccc(C(F)(F)F)c1 [Ex B1 Trifloxystrobin, Trifloxystrobin] the Efficacy in % ([1]; 1 ppm) was 70% and the Efficacy in % ([2]; 62.5 ppm) was 94%.

Cc1nn(C)c(F)c1C(=O)Nc1ccccc1C(C)CC(C)C (stereo not drawn) [N-[2-(1,3-Dimethylbutyl)phenyl]-5-fluor-1,3-dimethyl-1H-pyrazole-4-carboxamide] gave a pest or weed control at 62.5 ppm [5, 7] of 89%.

N#Cc1c[nH]cc1-c1cccc2c1OC(F)(F)O2 [Ex B4 Fludioxonil, Fludioxonil] gave an Efficacy in % ([4]; 50 ppm) of 26%, an Efficacy in % ([4]; 100 ppm) of 30% and an Efficacy in % ([1]; 200 ppm) of 70%. The pest or weed control at 125 ppm [5] was 44%.

Work on Cc1cc(O)no1 [Ex B2 Hymexazol, Hymexazol] yielded a pest or weed control at 1000 ppm ([5]; barley, preventive spray, 1000 ppm, evaluated 8 days after inoculation) of 0%.

CC(C)C1CCC(Cc2ccc(Cl)cc2)C1(O)Cn1cncn1 (stereo not drawn) [Ex B2 Ipconazole, Ipconazole] gave an Efficacy in % ([6]; 5 ppm) of 50%, an Efficacy in % ([6]; 10 ppm) of 77% and a pest or weed control at 250 ppm ([5]; barley, preventive spray, 250 ppm, evaluated 8 days after inoculation) of 33%.

With Cn1cc(C(=O)Nc2ccc(F)cc2-c2ccc(Cl)c(Cl)c2)c(C(F)F)n1 [Ex B3 Bixafen, Bixafen] the Efficacy in % ([4]; 1 ppm) was 73% and the pest or weed control at 62.5 ppm [5, 7] was 78%.

With CO/N=C(/C1=NOCCO1)c1ccccc1Oc1ncnc(Oc2ccccc2Cl)c1F [Ex B1 Fluoxastrobin, Fluoxastrobin] the pest or weed control at 62.5 ppm [5, 7] was 67%.

CCCN(CCOc1c(Cl)cc(Cl)cc1Cl)C(=O)n1ccnc1 [Ex B4 Prochloraz, Prochloraz] gave a pest or weed control at 62.5 ppm [5] of 89%.

From US8951934B2, “Active compound combinations” (Bayer CropScience AG, priority 2008, dated 2015)
